# Assay results taken from patent publication US20250228835A1, “PYRIDINYLOXYPYRIDINES AND RELATED COMPOUNDS AND THEIR USE IN TREATING MEDICAL CONDITIONS” (Rectify Pharmaceuticals, Inc., priority 2024, published 2025).
# What was measured:
# [1] = molecular target: T1, ABCC6 WT (Homo sapiens, UniProt O95255); experiment: ABCC6 WT assay: HiBit protein expression; format: cell-based; conditions: HEK-293 cells transiently expressing HiBit-tagged ABCC6 WT; 24 h treatment; top concentration 20 μM; read-out: ABCC6 WT EC50, Emax
# T1 construct: expressed in transfected cells; host or cells: HEK-293 (transient, Lipofectamine 2000)
# Outline: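 HEK-293 cells transiently transfected with HiBit-tagged human ABCC6 WT cDNA, seeded 24 h post-transfection, treated 24 h at 37° C with ten 2-fold doses (top 20 μM final, 0.15% DMSO). HiBit lytic luminescence reports protein expression; Emax and EC50 derived.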
# [2] = molecular target: T2, ABCD2 WT (Homo sapiens, UniProt Q9UBJ2); experiment: D2 correction dose-response assay: ABCD2 WT HiBit protein expression; format: cell-based; conditions: HEK-293/ABCD2 WT cells, 24 hours treatment, HiBit luminescence; class combines EC50 and Mean MaxAct (fold); read-out: ABCD2 WT EC50, Emax
# T2 construct: expressed in transfected cells
# T2 sequence (Q9UBJ2 1-740): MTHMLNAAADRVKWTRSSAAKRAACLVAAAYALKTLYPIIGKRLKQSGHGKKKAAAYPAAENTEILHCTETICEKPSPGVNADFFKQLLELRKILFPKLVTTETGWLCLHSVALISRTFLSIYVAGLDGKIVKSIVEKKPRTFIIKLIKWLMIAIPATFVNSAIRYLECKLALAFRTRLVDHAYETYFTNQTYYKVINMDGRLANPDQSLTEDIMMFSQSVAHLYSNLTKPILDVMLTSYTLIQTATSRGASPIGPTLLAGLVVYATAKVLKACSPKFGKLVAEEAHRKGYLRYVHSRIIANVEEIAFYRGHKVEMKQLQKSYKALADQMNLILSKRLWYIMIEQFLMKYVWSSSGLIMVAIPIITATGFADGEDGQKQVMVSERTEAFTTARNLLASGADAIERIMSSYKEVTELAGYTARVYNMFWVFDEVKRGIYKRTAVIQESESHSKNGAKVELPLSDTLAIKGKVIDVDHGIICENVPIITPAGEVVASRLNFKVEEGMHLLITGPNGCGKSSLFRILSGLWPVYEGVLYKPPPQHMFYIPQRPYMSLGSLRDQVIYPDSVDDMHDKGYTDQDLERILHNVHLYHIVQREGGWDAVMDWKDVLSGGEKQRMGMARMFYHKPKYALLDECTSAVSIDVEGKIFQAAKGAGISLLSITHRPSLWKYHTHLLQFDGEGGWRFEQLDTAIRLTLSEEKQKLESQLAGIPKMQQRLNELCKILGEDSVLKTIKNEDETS
# Outline: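 HEK-293 cells stably expressing HiBit-tagged human ABCD2 WT were treated with 11 doses (3-fold dilutions, top final 30 μM, 0.3% DMSO) for 24 h at 37 °C. Expression was measured by HiBit lytic luminescence after 1 h at 25 °C, giving EC50 and Emax.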
# T1 sequence (O95255 whole entry): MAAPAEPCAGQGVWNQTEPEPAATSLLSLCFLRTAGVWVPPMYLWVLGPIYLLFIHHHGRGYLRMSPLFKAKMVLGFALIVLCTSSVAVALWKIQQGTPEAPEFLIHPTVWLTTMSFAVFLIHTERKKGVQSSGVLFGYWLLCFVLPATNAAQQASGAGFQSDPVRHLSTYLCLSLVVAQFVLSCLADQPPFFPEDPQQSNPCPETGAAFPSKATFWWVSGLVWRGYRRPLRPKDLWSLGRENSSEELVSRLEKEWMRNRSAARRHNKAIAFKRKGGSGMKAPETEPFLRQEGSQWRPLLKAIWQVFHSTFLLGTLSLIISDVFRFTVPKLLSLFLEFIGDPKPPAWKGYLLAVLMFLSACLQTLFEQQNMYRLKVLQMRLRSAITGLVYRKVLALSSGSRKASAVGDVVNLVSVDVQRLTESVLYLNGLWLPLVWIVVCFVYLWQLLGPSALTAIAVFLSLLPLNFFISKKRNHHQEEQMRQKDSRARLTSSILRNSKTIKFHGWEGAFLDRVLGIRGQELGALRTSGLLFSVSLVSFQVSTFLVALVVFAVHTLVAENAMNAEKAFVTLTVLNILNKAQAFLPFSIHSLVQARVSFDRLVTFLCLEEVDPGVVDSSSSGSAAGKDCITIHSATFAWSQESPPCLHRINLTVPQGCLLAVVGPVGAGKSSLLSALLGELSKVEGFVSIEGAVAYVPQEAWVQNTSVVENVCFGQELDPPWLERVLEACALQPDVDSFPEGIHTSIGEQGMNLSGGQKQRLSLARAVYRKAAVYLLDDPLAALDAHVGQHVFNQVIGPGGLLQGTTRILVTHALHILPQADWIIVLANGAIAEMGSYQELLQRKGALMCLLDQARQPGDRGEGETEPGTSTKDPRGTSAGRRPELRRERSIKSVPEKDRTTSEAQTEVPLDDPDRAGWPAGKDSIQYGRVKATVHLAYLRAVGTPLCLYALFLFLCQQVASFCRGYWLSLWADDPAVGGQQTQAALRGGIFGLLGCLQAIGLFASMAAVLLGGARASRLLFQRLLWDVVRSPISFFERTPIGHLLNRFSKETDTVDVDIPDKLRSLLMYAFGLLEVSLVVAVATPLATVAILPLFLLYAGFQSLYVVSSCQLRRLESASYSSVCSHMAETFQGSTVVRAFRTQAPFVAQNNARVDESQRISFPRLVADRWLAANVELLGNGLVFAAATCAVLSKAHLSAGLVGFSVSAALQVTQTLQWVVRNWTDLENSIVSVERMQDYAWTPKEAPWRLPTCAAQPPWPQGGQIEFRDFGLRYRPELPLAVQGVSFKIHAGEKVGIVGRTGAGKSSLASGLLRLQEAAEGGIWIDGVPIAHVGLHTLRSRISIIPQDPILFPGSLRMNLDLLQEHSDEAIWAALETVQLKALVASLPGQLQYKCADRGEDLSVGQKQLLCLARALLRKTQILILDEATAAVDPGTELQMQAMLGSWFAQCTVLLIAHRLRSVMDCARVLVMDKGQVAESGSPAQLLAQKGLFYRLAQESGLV
SMILES,EC50 [1] [µM],EC50 [2] [µM]
Cc1cc(C)c(Oc2nc(-c3cncc(N4CC(F)(F)C4)c3)ccc2NS(C)(=O)=O)c(C)n1 [Compound I-195],< 1,> 25
COC1CN(c2cncc(-c3ccc(NS(C)(=O)=O)c(Oc4c(C)cc(C)nc4C)n3)c2)C1 [Compound I-196],< 1,< 1
Cc1cc(C(F)F)nc(C)c1Oc1nc(-c2cncc(C3COC3)c2)ccc1NS(C)(=O)=O [Compound I-197],< 1,1 to 10
Cc1cc(C(F)(F)F)nc(C)c1Oc1nc(-c2cncc(C3COC3)c2)ccc1NS(C)(=O)=O [Compound I-198],≥ 25,> 25
Cc1cc(C(F)F)nc(C)c1Oc1nc(-c2cncc(C#N)c2)ccc1NS(=O)(=O)C1CC1 [Compound I-199],1 to 10,1 to 10
Cc1nc(C(F)(F)F)nc(C)c1Oc1nc(-c2cncc(C#N)c2)ccc1NS(C)(=O)=O [Compound I-200],< 1,< 1
Cc1cc(C)c(Oc2nc(-c3cncc(N4CCOCC4)c3)ccc2NS(C)(=O)=O)c(C)n1 [Compound I-201],1 to 10,1 to 10
Cc1cc(C(F)F)nc(C)c1Oc1nc(-c2cncc(Cl)c2)ccc1NS(C)(=O)=O [Compound I-202],< 1,> 25
Cc1cc(C(F)F)nc(C)c1Oc1nc(-c2ccnc(C#N)c2)ccc1NS(=O)(=O)C1CC1 [Compound I-203],< 1,< 1
Cc1cc(C(F)F)nc(C)c1Oc1nc(-c2ccnc(C#N)c2)ccc1NS(C)(=O)=O [Compound I-204],< 1,< 1
Cc1nc(C(F)(F)F)nc(C)c1Oc1nc(-c2cncc(Cl)c2)ccc1NS(C)(=O)=O [Compound I-205],< 1,< 1
COC(=O)c1cncc(-c2ccc(NS(C)(=O)=O)c(Oc3cc(C)n(C)n3)n2)c1 [Compound I-206],1 to 10,> 25
Cc1cc(C2CCC2)nc(C)c1Oc1nc(-c2cncc(C#N)c2)ccc1NS(C)(=O)=O [Compound I-208],< 1,> 25
COc1nc(C)cc(C)c1Oc1nc(-c2cncc(C#N)c2)ccc1NS(C)(=O)=O [Compound I-209],< 1,< 1
Cc1cc(C)c(Oc2nc(-c3ccnc(C#N)c3)ccc2NS(=O)(=O)C2CC2)c(C)n1 [Compound I-211],< 1,< 1
C#Cc1cncc(-c2ccc(NS(C)(=O)=O)c(Oc3c(C)cc(C)nc3C)n2)c1 [Compound I-212],< 1,< 1
Cc1cc(C2CC2)nc(C)c1Oc1nc(-c2ccnc(C#N)c2)ccc1NS(C)(=O)=O [Compound I-213],< 1,> 25
Cc1cc(C)c(Oc2nc(-c3cncc(C4COC4)c3)ccc2NS(C)(=O)=O)c(C)n1 [Compound I-216],< 1,< 1

SMILES,EC50 [1] [µM],EC50 [2] [µM]
CCS(=O)(=O)Nc1ccc(-c2cncc(C#N)c2)nc1Oc1c(C)cc(C(F)(F)F)nc1C [Compound I-217],< 1,< 1
Cc1cc(C(F)(F)F)nc(C)c1Oc1nc(-c2cncc(C#N)c2)ccc1NS(=O)(=O)C1CC1 [Compound I-218],< 1,10 to 25
Cc1cc(C(F)(F)F)nc(C)c1Oc1nc(-c2ccnc(C#N)c2)ccc1NS(C)(=O)=O [Compound I-219],< 1,< 1
Cc1cc(C)c(Oc2nc(-c3cncc(C(C)(C)O)c3)ccc2NS(C)(=O)=O)c(C)n1 [Compound I-220],≥ 25,> 25
Cc1cc(C)c(Oc2nc(-c3cncc(C#N)c3)ccc2N2CCCS2(=O)=O)c(C)n1 [Compound I-221],1 to 10,> 25
COc1cc(C)c(Oc2nc(-c3cncc(C#N)c3)ccc2NS(C)(=O)=O)c(C)n1 [Compound I-222],< 1,< 1
Cc1nc(C)c(C(F)(F)F)cc1Oc1nc(-c2cncc(C#N)c2)ccc1NS(C)(=O)=O [Compound I-225],< 1,< 1
Cc1cc(Oc2nc(-c3cncc(C#N)c3)ccc2NS(C)(=O)=O)c(C)nc1C [Compound I-226],< 1,< 1
Cc1cc(C)c(Oc2nc(-c3cncc(CO)c3)ccc2NS(C)(=O)=O)c(C)n1 [Compound I-227],< 1,1 to 10
Cc1cc(C)c(Oc2nc(-c3cncc(C#N)c3)ccc2NS(=O)(=O)C2COC2)c(C)n1 [Compound I-228],< 1,1 to 10
Cc1nc(C)c(C2CC2)cc1Oc1nc(-c2cncc(C#N)c2)ccc1NS(C)(=O)=O [Compound I-229],1 to 10,1 to 10
Cc1cc(C(F)F)nc(C)c1Oc1nc(-c2cncc(C#N)c2)ccc1NS(C)(=O)=O [Compound I-230],< 1,< 1
COCc1cncc(-c2ccc(NS(C)(=O)=O)c(Oc3c(C)cc(C)nc3C)n2)c1 [Compound I-231],< 1,< 1
Cc1cc(C)c(Oc2nc(-c3cncc(C4CC4)c3)ccc2NS(C)(=O)=O)c(C)n1 [Compound I-232],< 1,< 1
Cc1nc(C)c(Oc2nc(-c3cncc(C#N)c3)ccc2NS(C)(=O)=O)c(C)n1 [Compound I-234],< 1,< 1
Cc1cc(C2CC2)nc(C)c1Oc1nc(-c2cncc(C#N)c2)ccc1NS(=O)(=O)C1COC1 [Compound I-235],< 1,< 1
Cc1cc(C2CC2)nc(C)c1Oc1nc(-c2cncc(Cl)c2)ccc1NS(=O)(=O)C1COC1 [Compound I-236],< 1,< 1
Cc1cc(C)c(Oc2nc(-c3cncc(Cl)c3)ccc2NS(=O)(=O)C2COC2)c(C)n1 [Compound I-237],< 1,< 1
